Experimental data from US8569371B2, “Crystal forms of O-desmethylvenlafaxine fumarate” (Pliva Hrvatska D.O.O., priority 2010, dated 2013).

Assay: Differential Scanning Calorimetry (DSC) comparison of crystal forms
Format: physicochemical
Details: comparison of DSC curves (FIG. 6); heating rate 10° C./min, 20-200° C.; melting 34° C. higher than Form I and 16° C. higher than Form II
Description: Differential Scanning Calorimetry (DSC) A. Equipment Instrument: TA Universal Analysis Q1000 Software: Universal Analysis 2000 B. Experimental Parameters Heating rate: 10° C./min Temperature range: 20-200° C. Sample size: 2.00-5.00 mg Purge gas: Nitrogen, 40 ml/min Crucible: Hermetic pinholed

thermal stability as compared to forms I and II: enhanced thermal stability
SMILES: CN(C)CC(c1ccc(O)cc1)C1(O)CCCCC1.O=C(O)/C=C/C(=O)O (stereo not shown) [O-Desvenlafaxine fumarate Form N, O-desmethylvenlafaxine fumarate]
